Assay results published in patent publication US20100227856A1, “NOVEL COMPOUNDS” (SMITHKLINE BEECHAM CORPORATION, priority 2006, published 2010).
pEC50: −log10 of the molar value.

Biological target: T1, TRPV4 channel receptors (Bos taurus, UniProt A0A8F4X677)
T1 construct: obtained using this method in bovine articular chondrocytes; endogenous in cells; host or cells: bovine articular chondrocytes
Assay: Ca2+ influx in bovine articular chondrocytes (Fura-2 fluorescence, FlexStation)
Format: cell-based
From the text: Ca^2+ influx mediated through TRPV4 channel receptors can be measured using articular chondrocytes from such species as, but not limited to, human, rat, canine, rabbit, monkey, and bovine, using standard techniques in the art such as, but not limited to, Fura-2 (Invitrogen/Molecular Probes, Eugene, Oreg.) fluorescence using a FlexStation (manufactured by Molecular Devices, Sunnyvale, Calif.). Table 1 lists biological data for several representative compounds obtained using this method in bovine articular chondrocytes.

T1 sequence (A0A8F4X677 1-871): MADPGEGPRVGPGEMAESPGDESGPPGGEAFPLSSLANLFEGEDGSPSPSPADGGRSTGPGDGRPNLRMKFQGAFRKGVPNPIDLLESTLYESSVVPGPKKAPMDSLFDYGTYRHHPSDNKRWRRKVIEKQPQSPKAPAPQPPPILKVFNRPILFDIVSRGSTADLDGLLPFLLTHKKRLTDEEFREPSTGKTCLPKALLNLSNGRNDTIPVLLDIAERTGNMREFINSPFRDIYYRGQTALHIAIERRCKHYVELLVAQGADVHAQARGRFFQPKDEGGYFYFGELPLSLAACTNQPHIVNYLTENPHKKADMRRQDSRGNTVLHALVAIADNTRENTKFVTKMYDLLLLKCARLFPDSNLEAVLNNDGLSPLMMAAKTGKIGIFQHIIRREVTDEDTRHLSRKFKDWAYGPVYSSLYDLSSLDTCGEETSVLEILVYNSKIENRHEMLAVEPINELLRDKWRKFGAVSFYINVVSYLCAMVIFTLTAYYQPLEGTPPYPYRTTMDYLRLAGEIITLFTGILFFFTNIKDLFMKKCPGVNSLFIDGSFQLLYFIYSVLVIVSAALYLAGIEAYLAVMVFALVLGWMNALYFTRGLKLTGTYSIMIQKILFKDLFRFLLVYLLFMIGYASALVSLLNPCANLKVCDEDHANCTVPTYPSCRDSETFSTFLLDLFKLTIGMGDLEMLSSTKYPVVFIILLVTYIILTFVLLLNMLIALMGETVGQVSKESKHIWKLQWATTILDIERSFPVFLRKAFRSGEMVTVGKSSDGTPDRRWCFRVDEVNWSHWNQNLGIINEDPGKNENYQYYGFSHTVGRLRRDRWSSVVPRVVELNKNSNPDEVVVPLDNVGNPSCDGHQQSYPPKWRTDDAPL

pEC50 | Structure (SMILES)
5.70 to 6.96 | CC(C)C[C@H](NC(=O)c1cc2ccccc2s1)C(=O)NCC1CCCCN1S(=O)(=O)c1ccccc1C#N (stereo partly drawn) [Example 1, N-((1S)-1-{[({1-[(2-cyanophenyl)sulfonyl]-2-piperidinyl}methyl)amino]carbonyl}-3-methylbutyl)-1-benzothiophene-2-carboxamide]
7.00 to 8.00 | CC(C)C[C@H](NC(=O)c1cc2ccccc2s1)C(=O)NCCC1CCCCN1S(=O)(=O)c1ccc(Cl)cc1Cl (stereo partly drawn) [Example 3, N-((1S)-1-{[(2-{1-[(2,4-Dichlorophenyl)sulfonyl]-2-piperidinyl}ethyl)amino]carbonyl}-3-methylbutyl)-1-benzothiophene-2-carboxamide]
